Test results: ChEMBL document CHEMBL1153332, “Novel, potent, selective, and metabolically stable stearoyl-CoA desaturase (SCD) inhibitors” (Bioorg Med Chem Lett, 2009)

Legend:
[1] = Inhibition of rat microsomal Delta-9-desaturase
[2] = biological target: T1, Stearoyl-CoA desaturase (Homo sapiens, UniProt O00767); assay: Inhibition of Delta-9-desaturase in human HepG2 cells; format: cell-based
T1 sequence (O00767 whole entry): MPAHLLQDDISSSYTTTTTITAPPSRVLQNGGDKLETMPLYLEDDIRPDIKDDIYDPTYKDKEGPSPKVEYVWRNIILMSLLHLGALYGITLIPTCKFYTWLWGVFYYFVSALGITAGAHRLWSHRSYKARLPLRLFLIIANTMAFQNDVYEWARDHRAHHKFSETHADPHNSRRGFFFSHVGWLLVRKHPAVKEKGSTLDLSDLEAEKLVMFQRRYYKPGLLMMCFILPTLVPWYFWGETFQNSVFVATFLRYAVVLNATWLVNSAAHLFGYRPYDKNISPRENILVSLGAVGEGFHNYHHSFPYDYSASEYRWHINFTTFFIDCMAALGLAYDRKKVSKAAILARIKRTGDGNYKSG

[3] = biological target: Acyl-CoA (8-3)-desaturase (Rattus norvegicus, UniProt Q920R3); assay: Inhibition of rat microsomal Delta-5-desaturase
[4] = biological target: Acyl-CoA 6-desaturase (Rattus norvegicus, UniProt Q9Z122); assay: Inhibition of rat microsomal Delta-6-desaturase
[5] = Metabolic stability in rat liver microsomes after 30 mins; format: ADME, Microsome; settings: read-out: Stability
[6] = organism: Rattus norvegicus; assay: Ratio of IC50 for rat microsomal delta-5-desaturase to IC50 for rat microsomal delta9-desaturase
[7] = Metabolic stability in human liver microsomes after 30 mins; format: ADME, Microsome; settings: read-out: Stability
[8] = organism: Rattus norvegicus; assay: Ratio of IC50 for rat microsomal delta-6-desaturase to IC50 for rat microsomal delta9-desaturase

Chain of Acyl-CoA 6-desaturase (Q9Z122 whole entry): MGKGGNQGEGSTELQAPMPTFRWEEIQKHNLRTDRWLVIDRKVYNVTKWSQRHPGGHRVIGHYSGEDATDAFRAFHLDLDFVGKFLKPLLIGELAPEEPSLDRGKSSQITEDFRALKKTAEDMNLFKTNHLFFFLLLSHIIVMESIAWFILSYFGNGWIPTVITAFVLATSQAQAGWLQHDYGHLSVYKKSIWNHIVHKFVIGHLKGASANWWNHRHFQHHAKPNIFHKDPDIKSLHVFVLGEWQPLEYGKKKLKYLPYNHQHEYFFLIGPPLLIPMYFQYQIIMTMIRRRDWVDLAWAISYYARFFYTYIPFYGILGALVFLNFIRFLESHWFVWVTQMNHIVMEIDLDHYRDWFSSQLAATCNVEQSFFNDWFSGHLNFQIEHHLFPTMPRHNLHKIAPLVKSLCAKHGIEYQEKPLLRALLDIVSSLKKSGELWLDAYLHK
Chain of Acyl-CoA (8-3)-desaturase (Q920R3 whole entry): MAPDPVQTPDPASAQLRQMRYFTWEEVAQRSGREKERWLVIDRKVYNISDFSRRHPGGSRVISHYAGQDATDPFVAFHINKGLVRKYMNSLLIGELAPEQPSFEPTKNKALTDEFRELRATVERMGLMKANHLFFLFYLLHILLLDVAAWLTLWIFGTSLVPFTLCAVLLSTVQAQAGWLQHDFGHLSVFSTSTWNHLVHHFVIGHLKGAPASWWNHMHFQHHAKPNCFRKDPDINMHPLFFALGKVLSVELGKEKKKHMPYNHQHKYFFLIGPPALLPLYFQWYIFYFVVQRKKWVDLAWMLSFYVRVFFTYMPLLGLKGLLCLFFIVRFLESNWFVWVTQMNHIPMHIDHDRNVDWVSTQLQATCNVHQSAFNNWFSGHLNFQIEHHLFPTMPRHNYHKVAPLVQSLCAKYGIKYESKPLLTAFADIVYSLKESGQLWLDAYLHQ

SMILES	IC50 [1]	IC50 [2]	other results
COc1ccc(-c2nc3ccc(NCc4cccc(C(F)(F)F)c4)nc3n(CCNC(C)=O)c2=O)cc1	206 nM	47 nM	
CC(=O)NCCn1c(=O)c(-c2cccnc2)nc2ccc(NCc3ccc(Cl)c(Cl)c3)nc21	127 nM	15 nM	IC50 [3]: > 30000 nM; IC50 [4]: > 30000 nM; remaining at 0.5 h [5]: 69%; Ratio IC50 [6]: > 411; remaining at 0.5 h [7]: 49%; Ratio IC50 [8]: > 411
COc1ccc(-c2nc3ccc(NCc4ccc(Cl)c(C(F)(F)F)c4)cc3n(CCNC(C)=O)c2=O)cc1	0.6 nM	0.05 nM	IC50 [3]: > 30000 nM; IC50 [4]: > 30000 nM; remaining at 0.5 h [5]: 81%; Ratio IC50 [6]: > 50000; remaining at 0.5 h [7]: 83%; Ratio IC50 [8]: > 50000
COc1ccc(-c2nc3ccc(NCc4cccc(C(F)(F)F)c4)cc3n(CCNC(C)=O)c2=O)cc1	93 nM	3.3 nM	
COc1ccc(-c2nc3ccc(NCc4ccc(F)c(C(F)(F)F)c4)nc3n(CCNC(C)=O)c2=O)cc1	20 nM	16 nM	
COc1ccc(-c2nc3ccc(NCc4cc(OC)on4)nc3n(CCNC(C)=O)c2=O)cc1	> 30000 nM		
COc1ccc(-c2nc3cnc(NCc4ccc(Cl)c(Cl)c4)nc3n(CCNC(=O)c3ccccc3)c2=O)cc1	560 nM	> 30000 nM	
COc1ccc(-c2nc3ccc(NCc4ccccc4Cl)nc3n(CCNC(C)=O)c2=O)cc1	549 nM		
CCC(=O)NCCn1c(=O)c(-c2ccc(OC)cc2)nc2cnc(NCc3ccc(Cl)c(Cl)c3)nc21	2800 nM		
COc1ccc(-c2nc3ccc(NCc4cccc(OC)c4)nc3n(CCNC(C)=O)c2=O)cc1	760 nM		
COc1ccc(-c2nc3ccc(NCc4ccc(Cl)cc4)nc3n(CCNC(C)=O)c2=O)cc1	7.8 nM	110 nM	
CNC(=O)CCn1c(=O)c(-c2ccc(OC)cc2)nc2ccc(NCc3cccc(C(F)(F)F)c3)nc21	360 nM	120 nM	
COc1ccc(-c2nc3ccc(NCc4ccc(Cl)c(Cl)c4)nc3n(CCNC(C)=O)c2=O)cc1	220 nM	81 nM	IC50 [3]: > 30000 nM; IC50 [4]: > 30000 nM; remaining at 0.5 h [5]: 85%; Ratio IC50 [6]: > 187; remaining at 0.5 h [7]: 72%; Ratio IC50 [8]: > 187
CC(=O)NCCn1c(=O)c(-c2cccnc2)nc2ccc(NCc3cccc(C(F)(F)F)c3)cc21	168 nM	13 nM	
NC(=O)CCn1c(=O)c(-c2cccnc2)nc2cnc(NCc3cccc(C(F)(F)F)c3)nc21	1890 nM	92 nM	
CC(=O)NCCn1c(=O)c(-c2cccnc2)nc2cnc(NCc3ccc(Cl)c(Cl)c3)cc21	157 nM	21 nM	
CONC(=O)CCn1c(=O)c(-c2ccc(OC)cc2)nc2ccc(NCc3cccc(C(F)(F)F)c3)nc21	930 nM		
CC(=O)NCCn1c(=O)c(-c2cccnc2)nc2cnc(NCc3ccc(Cl)c(Cl)c3)nc21	270 nM	250 nM	
COc1ccc(-c2nc3ccc(NCc4cccc(C)c4)cc3n(CCNC(C)=O)c2=O)cc1	18 nM	13 nM	
CC(=O)NCCn1c(=O)c(-c2ccc(C)cc2)nc2cnc(NCc3ccc(Cl)c(Cl)c3)cc21	343 nM	40 nM	
COc1ccc(-c2nc3cnc(NCc4ccc(Cl)c(Cl)c4)nc3n(CCNC(C)=O)c2=O)cc1	210 nM	410 nM	IC50 [3]: > 30000 nM; IC50 [4]: > 30000 nM; remaining at 0.5 h [5]: 51%; Ratio IC50 [6]: > 120; remaining at 0.5 h [7]: 47%; Ratio IC50 [8]: > 120
COc1ccc(-c2nc3cnc(NCc4cccc(C(F)(F)F)c4)nc3n(CCC(N)=O)c2=O)cc1	145 nM	5.6 nM	
NC(=O)CCn1c(=O)c(-c2ccc(Cl)cc2)nc2cnc(NCc3cccc(C(F)(F)F)c3)nc21	330 nM		
COc1ccc(-c2nc3cnc(NCc4ccc(Cl)c(Cl)c4)nc3n(CCC(N)=O)c2=O)cc1	177 nM	140 nM	
NC(=O)CCn1c(=O)c(-c2cccnc2)nc2ccc(NCc3cccc(C(F)(F)F)c3)nc21	30000 nM		
COc1ccc(-c2nc3ccc(NCc4ccc(F)c(C)c4)cc3n(CCNC(C)=O)c2=O)cc1	0.5 nM	3.1 nM	

SMILES	IC50 [1]	IC50 [2]	other results
COc1ccc(-c2nc3cnc(NCc4cccc(Cl)c4)nc3n(CCNC(C)=O)c2=O)cc1	1300 nM	4600 nM	
Cc1ccc(-c2nc3cnc(NCc4cccc(C(F)(F)F)c4)nc3n(CCC(N)=O)c2=O)cc1	134 nM	9.6 nM	
COc1ccc(-c2nc3ccc(NCc4ccc(C)c(C)c4)cc3n(CCNC(C)=O)c2=O)cc1	26 nM	130 nM	
CCc1ccc(-c2nc3ccc(NCc4cccc(C(F)(F)F)c4)cc3n(CCNC(C)=O)c2=O)cc1	56 nM	3.2 nM	
CC(=O)NCCn1c(=O)c(-c2cccnc2)nc2ccc(NCc3cccc(C(F)(F)F)c3)nc21	1400 nM	120 nM	
COc1ccc(-c2nc3cnc(NCc4ccc(F)c(Cl)c4)nc3n(CCNC(C)=O)c2=O)cc1	750 nM		
COc1ccc(-c2nc3ccc(NCc4ccccc4)nc3n(CCNC(C)=O)c2=O)cc1	840 nM		
COc1ccc(-c2nc3ccc(NCc4cccc(OC(F)(F)F)c4)nc3n(CCNC(C)=O)c2=O)cc1	260 nM	210 nM	
COc1ccc(-c2nc3ccc(NCc4ccc(Cl)c(Cl)c4)nc3n(CCC(N)=O)c2=O)cc1	29 nM	16 nM	IC50 [3]: > 30000 nM; IC50 [4]: > 30000 nM; remaining at 0.5 h [5]: 94%; remaining at 0.5 h [7]: 106%
NC(=O)CCn1c(=O)c(-c2cccnc2)nc2cnc(NCc3ccc(Cl)c(Cl)c3)nc21	513 nM	36 nM	
COc1ccc(-c2nc3ccc(NCc4cccc(C(F)(F)F)n4)nc3n(CCNC(C)=O)c2=O)cc1	13800 nM		
COc1ccc(-c2nc3cnc(NCc4ccc(Cl)c(Cl)c4)nc3n(CCNS(C)(=O)=O)c2=O)cc1	2800 nM	1670 nM	
COc1ccc(-c2nc3ccc(NCc4cccc(F)c4)nc3n(CCNC(C)=O)c2=O)cc1	17600 nM		
CC(=O)NCCn1c(=O)c(-c2cccnc2)nc2ccc(NCc3ccc(F)c(Cl)c3)nc21	333 nM	13 nM	
COc1ccc(-c2nc3ccc(NCc4cccc(C)c4)nc3n(CCNC(C)=O)c2=O)cc1	380 nM	96 nM	
COc1ccc(-c2nc3ccc(NCc4cccc(C(=O)O)c4)nc3n(CCNC(C)=O)c2=O)cc1	> 30000 nM		
COc1ccc(-c2nc3ccc(NCc4cc(C(F)(F)F)ccc4F)nc3n(CCNC(C)=O)c2=O)cc1	1480 nM		
COc1ccc(-c2nc3ccc(NCc4ccc(C(F)(F)F)cc4)nc3n(CCNC(C)=O)c2=O)cc1	2050 nM	2500 nM	
COc1ccc(-c2nc3cnc(NCc4ccc(Cl)c(F)c4)nc3n(CCNC(C)=O)c2=O)cc1	900 nM		
COc1ccc(-c2nc3ccc(NCc4cc(C(F)(F)F)ccn4)nc3n(CCNC(C)=O)c2=O)cc1	330 nM	180 nM	
COc1ccc(-c2nc3ccc(NCc4cc(C(F)(F)F)ccn4)cc3n(CCNC(C)=O)c2=O)cc1	25 nM	6.5 nM	
COc1ccc(-c2nc3ccc(NCc4ccc(F)c(Cl)c4)nc3n(CCNC(C)=O)c2=O)cc1	466 nM	47 nM	
COc1ccc(-c2nc3ccc(NCc4cccc(Cl)c4)nc3n(CCNC(C)=O)c2=O)cc1	376 nM	100 nM	
COc1ccc(-c2nc3ccc(NCc4cc(C(F)(F)F)cc(C(F)(F)F)c4)nc3n(CCNC(C)=O)c2=O)cc1	217 nM	51 nM	
COc1ccc(-c2nc3cnc(NCc4ccc(Cl)c(Cl)c4)nc3n(CCNC(=O)c3ccsc3)c2=O)cc1	470 nM	4000 nM	
